Test results published in patent US8247211B2, “Glycopeptide antibiotics” (American Cyanamid Company, priority 2001, dated 2012).

What was measured:
[1] = test system: Staphylococcus aureus-SMITH (GC 4543); assay: Acute lethal infection in mice (ED50); format: in vivo; settings: female CD-1 mice, intraperitoneal challenge, intravenous dose 30 min. after infection, 7 day survival ratios
Summary of the method: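 IP bacterial challenge, female CD-1 mice; inoculum lethal to untreated controls in 24-48 hr. IV dosing in saline or 5% dextrose 30 min post-infection, 5 mice/dose. ED50 from 7-day survival, 3 tests pooled.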

[2] = Anatomic pathology (heart and kidney histopathology) in mice; format: in vivo, CD-1 mice; settings: 20 mg/kg intravenously daily for 9 days, microscopic histopathology on day 10
Summary of the method: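 Histopathology on H&E-stained, paraffin-embedded sections, subjectively scored (slight, mild, moderate, marked, severe) relative to untreated controls. Dosing: glycopeptide antibiotics 20 mg/kg intravenously once daily ×9 days in 20-day-old CD-1 mice, n=5 per group including vehicle.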

[3] = format: in vivo; settings: mice, 20 mg/kg intravenously daily for 9 days, serum on day 10
Experimental: 20-day-old CD-1 mice were divided into a vehicle control group (5 mice) and a treatment group (5 mice). Samples of glycopeptide antibiotics were administered at 20 mg/kg intravenously daily for 9 days. Animals were necropsied on day 10 Sera were analyzed for BUN (blood urea nitrogen), creatinine, AST (aspartic aminotransferase), and ALT (alanine aminotransferase) by routine, standard, automated methods using an Hitachi 747 chemistry analyzer.

[4] = test system: Staphylococcus sp.; assay: In vitro antibacterial evaluation: minimum inhibitory concentration (MIC), broth dilution method; format: cell-based; settings: 18 hours at 35° C.
Summary of the method: (§1)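 Susceptibility determined by NCCLS-recommended broth dilution (M7-A2), Muller-Hinton II […]. Concentration span 64-0.06 μg/mL, inoculum 5×10^5 CFU/mL. Isolates include strains resistant to methicillin, penicillin and/or vancomycin.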

[5] = test system: Enterococcus sp.; assay: as above; format: cell-based; settings: 18 hours at 35° C.
Summary of the method: as §1

[6] = test system: Escherichia coli; assay: as above; format: cell-based; settings: 18 hours at 35° C.
Summary of the method: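 Values are minimum inhibitory concentrations, meaning the smallest antibiotic concentration that stops growth of the organism. They come from broth dilution in Muller-Hinton II […] per NCCLS guidance (M7-A2), using 5×10^5 CFU/mL and concentrations from 64 to 0.06 μg/mL.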

[7] = test system: Streptococcus sp.; assay: as above; format: cell-based; settings: 18 hours at 35° C.
Summary of the method: as §1

[8] = broth dilution, inoculum 5×10^5 CFU/mL

COc1ccc2cc(COCC3OC(OC4C(CO)OC(Oc5ccc(CC6NC(=O)C(C(C)c7ccccc7)NC(=O)CNC(=O)C(CO)NC(=O)C(CC7CNC(=N)N7C7OC(CO)C(O)C(O)C7O)NC(=O)C(CC7CNC(=N)N7)NC6=O)cc5)C(O)C4O)C(O)C(O)C3O)ccc2c1 (stereo not drawn) [Example 245, Cyclo[3-(2-iminoimidazolidin-4-yl)alanyl-3-(3-hexopyranosyl-2-iminoimidazolidin-4-yl)-alanylserylglycyl-β-methylphenylalanyl-O-[4-O-[6-O-[(6-methoxy-2-naphthyl)methyl]-hexopyranosyl)hexopyranosyl]tyrosyl]]
4 mg/kg: median effective dose (ED50), Staphylococcus aureus-SMITH (GC 4543) [1]
0: Anatomical Pathology (Day 10), Heart [2]
4 µg/mL: MIC Coagulase Negative Staphylococcus (GC 4547) ([4]; Coagulase Negative Staphylococcus (GC 4547)) | MIC Staphylococcus aureus (ATCC 29213) ([4]; Staphylococcus aureus (ATCC 29213)) | MIC Staphylococcus aureus (GC 3051) ([4]; Staphylococcus aureus (GC 3051)) | MIC Staphylococcus aureus (GC 3053) ([4]; Staphylococcus aureus (GC 3053)) | MIC Staphylococcus aureus (GC 4541) ([4]; Staphylococcus aureus (GC 4541)) | MIC Staphylococcus aureus (GC 4542) ([4]; Staphylococcus aureus (GC 4542)) | MIC Staphylococcus aureus (GC 4545) ([4]; Staphylococcus aureus (GC 4545)) | MIC Staphylococcus aureus-SMITH (GC 4543) ([4]; Staphylococcus aureus-SMITH (GC 4543)) | MIC Staphylococcus haemolyticus (GC 4546) ([4]; Staphylococcus haemolyticus (GC 4546)) | MIC Enterococcus faecium (GC 4557) ([5]; Enterococcus faecium (GC 4557)) | MIC Escherichia coli (GC 4560) ([6]; Escherichia coli (GC 4560)) | MIC Streptococcus agalactiae (GC 4564) ([7]; Streptococcus agalactiae (GC 4564)) | MIC Streptococcus pneumoniae (GC 4565) ([7]; Streptococcus pneumoniae (GC 4565)) | MIC Streptococcus pyogenes (GC 4563) ([7]; Streptococcus pyogenes (GC 4563)) | MIC Streptococcus agalactiae (GC 4564) [7, 8] | MIC Streptococcus pneumoniae (GC 4565) [7, 8] | MIC Streptococcus pyogenes (GC 4563) [7, 8]
16 µg/mL: MIC Enterococcus avium (GC 4558) ([5]; Enterococcus avium (GC 4558)) | MIC Enterococcus faecalis (GC 2242) ([5]; Enterococcus faecalis (GC 2242)) | MIC Enterococcus faecalis (GC 3059) ([5]; Enterococcus faecalis (GC 3059)) | MIC Enterococcus faecalis (GC 4552) ([5]; Enterococcus faecalis (GC 4552)) | MIC Enterococcus faecalis (GC 4553) ([5]; Enterococcus faecalis (GC 4553)) | MIC Enterococcus faecium (GC 2243) ([5]; Enterococcus faecium (GC 2243)) | MIC Enterococcus faecium (GC 4556) ([5]; Enterococcus faecium (GC 4556)) | MIC Enterococcus faecalis (GC 2242) [5, 8] | MIC Enterococcus faecalis (GC 3059) [5, 8]
32 µg/mL: MIC Enterococcus faecalis (ATCC 29212) ([5]; Enterococcus faecalis (ATCC 29212)) | MIC Enterococcus faecalis (GC 2691) ([5]; Enterococcus faecalis (GC 2691)) | MIC Enterococcus faecalis (GC 4554) ([5]; Enterococcus faecalis (GC 4554)) | MIC Enterococcus faecalis (GC 6189) ([5]; Enterococcus faecalis (GC 6189)) | MIC Enterococcus faecalis (GC 2691) [5, 8] | MIC Escherichia coli (GC 4559) ([6]; Escherichia coli (GC 4559))
8 µg/mL: MIC Coagulase Negative Staphylococcus (GC 4551) ([4]; Coagulase Negative Staphylococcus (GC 4551)) | MIC Staphylococcus aureus (GC 1131) ([4]; Staphylococcus aureus (GC 1131)) | MIC Staphylococcus aureus (GC 4544) ([4]; Staphylococcus aureus (GC 4544))
+160%: Clinical Chemistry (Day 10) % of Control, BUN [3]
64 µg/mL: MIC Escherichia coli (ATCC 25922) ([6]; Escherichia coli (ATCC 25922))
1 µg/mL: MIC Coagulase Negative Staphylococcus (GC 4549) ([4]; Coagulase Negative Staphylococcus (GC 4549)) | MIC Streptococcus pneumoniae (GC 1894) ([7]; Streptococcus pneumoniae (GC 1894)) | MIC Streptococcus pneumoniae (GC 1894) [7, 8]
2 µg/mL: MIC Coagulase Negative Staphylococcus (GC 4548) ([4]; Coagulase Negative Staphylococcus (GC 4548)) | MIC Coagulase Negative Staphylococcus (GC 6257) ([4]; Coagulase Negative Staphylococcus (GC 6257)) | MIC Streptococcus pneumoniae (ATCC 6301) ([7]; Streptococcus pneumoniae (ATCC 6301)) | MIC Streptococcus pneumoniae (ATCC 6301) [7, 8]
+++: Anatomical Pathology (Day 10), Kidney [2]

CC(c1ccccc1)C1NC(=O)CNC(=O)C(CO)NC(=O)C(CC2CNC(=N)N2C2OC(CO)C(O)C(O)C2O)NC(=O)C(CC2CNC(=N)N2)NC(=O)C(Cc2ccc(OC3OC(CO)C(OC4OC(CO)C(O)C(O)C4O)C(O)C3O)cc2)NC1=O (stereo not drawn) [Example 277a, Cyclo[3-(2-iminoimidazolidin-4-yl)alanyl-3-(3-hexopyranosyl-2-iminoimidazolidin-4-yl)-alanylserylglycyl-β-methylphenylalanyl-O-(4-O-hexopyranosylhexopyranosyl]tyrosyl]]
++: Anatomical Pathology (Day 10), Kidney [2]
>8: median effective dose (ED50), Staphylococcus aureus-SMITH (GC 4543) [1]
+110%: Clinical Chemistry (Day 10) % of Control, BUN [3]
0: Anatomical Pathology (Day 10), Heart [2]
